Read-outs that look alike come from different tables or passages of the source.
Columns and labels:
Format in all cases: cell-based
WEE1 = target: T1, WEE1 (Homo sapiens, UniProt P30291+Q96SW2); experiment: WEE1-ePL degradation assay (293T-LentiX, InCELL Hunter luminescence, 4 hr); conditions: for DC50: LentiX-HEK293T cells expressing WEE1-ePL, 4 hr incubation, read-out: 293T-LentiX WEE1-ePL Degradation 4 hr EC50; for 293T-LentiX WEE1-ePL Degradation 4 hr YMin (%): lower limit of fit, % of DMSO control signal remaining
T1 construct: C-terminal ePL-tagged (DiscoverX, Fremont, CA) full-length WEE1 expression construct; expressed in transfected cells; host or cells: LentiX-HEK293T (Invitrogen), lentivirally transduced; the cells also over-express GSPT1-GN
Excerpt: To generate LentiX-WEE1-ePL-GSPT1-ND cells for the WEE1 degradation assay, LentiX-HEK293T (Invitrogen) were tranduced by lentivirus with a C-terminal ePL-tagged (DiscoverX, Fremont, CA) full-length WEE1 expression construct. A separate lentiviral construct was introduced to over-express a mutated form of GSPT1 (NP_002085), termed GSPT1-GN, which contains a G575N mutation and is further truncated in the first 158 amino acids. GSPT1-GN is functional but not degradable by Cereblon. Cells were selected and maintained in complete DMEM media (DMEM, 10% Heat Inactivated FBS, 400 μg/mL Geneticin, and 1 μg/mL puromycin at 37 C and 5% CO2). Cells were passaged every 3-4 days by reseeding 1×10^6 cells in a T150 flask.
Cells were dispensed into 384-well white plates (Corning #3570, NY) that were pre-spotted with compounds using an acoustic dispenser (Echo acoustic transfer system, Beckman Coulter Life Sciences, Carlsbad, CA) as a 10-point dose-response curve with a 3-fold dilution starting at either 1 uM or 10 uM and including a DMSO control. Twenty-five microliters of media containing 2500 cells for LentiX-oeWEE1-ePL was dispensed per well. Assay plates were incubated at 37° C. with 5% CO2 for four hours (WEE1) After incubation, 25 μL of the InCELL Hunter™ Detection Reagent Working Solution (DiscoverX, Fremont, CA) was added to each well and incubated at room temperature for 30 minutes protected from light. After 30 minutes, luminescence was read on a PHERAstar luminometer (Cary, NC).
To determine the half-maximal effective concentration (EC50) values for WEE1-ePL degradation, a four parameter logistic model was used: (Sigmoidal Dose-Response Model) (FIT=(A+((B−A)/1+((C/x)^D)))) where C is the inflection point (EC50), D is the Hill slope, and A and B are the low and high limits of the fit respectively). The lower limit of the fit (value A) is referred to as Ymin. […] The maximum limit constraint, Ymax, is similarly derived using DMSO control. The curves were processed and evaluated using Activity Base (IDBS, Alameda, CA) or using Dotmatics (Boston, MA).

MKN45 cells = experiment: MKN45 cell proliferation assay (Cell-Titer-Glo, 120 hr); conditions: for EC50: read-out: MKN45 Cell Prolif. 120 hr EC50; for MKN45 Cell Prolif. 120 hr YMin (%): minimal percent of DMSO control observed
Excerpt: (§1) MKN45 cells were obtained from Celgene internal cell banks and cultured in RPMI complete media (RPMI-1640, 1× Penicillin/Streptomycin, 1× glutamine, 1× Sodium Pyruvate, Non-essential Amino Acids, 10% Fetal Bovine serum, all component from Thermo-Fisher). MDA-MB-231 cells were obtained from the ATCC (HTB-26) and cultured in RPMI-1640 and 10% Fetal Bovine serum; MDA-MB-231 cells were expanded and stored as aliquots in liquid nitrogen in Celgene internal cell banks. Compounds were dispensed into 384-well plates using an HP DE300 compound printer in triplicate with 8 compounds on each plate. Compounds were dispensed into 384-well black clear bottom plates (Corning #3764BC) using an EDC acoustic dispenser at BMS. For each compound, a 10-point dose response was printed at half-log dilutions starting at either 1 uM or 10 uM in triplicate for MKN45 cells and in duplicate for MDA-MB-231 cells. The DMSO concentration was kept constant for a final assay concentration of 0.1% per well assuming 50 ul final media volume. Compound plates were sealed and frozen at −20 C until use.
(§2) For each assay batch, compound plates were thawed and allowed to reach room temperature, and cells were seeded at 400 MKN45 cells per well, or 800 MDA-MB-231 cells per well, in 50 ul media listed above for each cell line. After 120 hours of incubation at 37 C and 5% CO2, cells were lysed by addition of 25 μL of Cell-Titer-Glo Reagent (Promega Corporation, Madison, WI), as per manufacturer's instructions, protected from light, shaken for 45 minutes, and total luminescence read by a Perkin Elmer Envision plate reader. Total luminescence signal is linearly correlated with cell number remaining in the well.
(§3) Luminescence data was processed per plate by subtracting reagent-only “blank” well luminescence from all measured values and calculating a percent of DMSO control value for each treatment well. Then, to determine the half-maximal effective concentration (EC50) values for cell growth inhibition, a four parameter logistic model was fit to the data for each DMSO-normalized compound: Sigmoidal Dose-Response Model: (FIT=(A+((B−A)/1+((C/x)^D)))) where C is the inflection point ([…]), D is the Hill slope, and A and B are the low and high limits of the fit respectively. The lower limit of the fit (value A) is referred to as Ymin-calculated. The minimal percent of DMSO control that is observed in the concentrations tested for each compound is labeled as “Ymin-obs”, and was recorded and reported in the tables. Sigmoidal fit curves were processed and evaluated using Activity Base (IDBS, Alameda, CA) or using Dotmatics (Boston, MA). N/A=not available at the present time.

MDA-MB-231 cells = experiment: MDA-MB-231 cell proliferation assay (Cell-Titer-Glo, 120 hr); conditions: for EC50: read-out: MDA-MB 231 Cell Prolif. 120 hr EC50; for MDA-MB 231 Cell Prolif. 120 hr YMin (%): minimal percent of DMSO control observed
Excerpt: as §1, §2, §3

[1] = Homo sapiens, MDA-MB-231, 120 h

T1 sequence (P30291 whole entry): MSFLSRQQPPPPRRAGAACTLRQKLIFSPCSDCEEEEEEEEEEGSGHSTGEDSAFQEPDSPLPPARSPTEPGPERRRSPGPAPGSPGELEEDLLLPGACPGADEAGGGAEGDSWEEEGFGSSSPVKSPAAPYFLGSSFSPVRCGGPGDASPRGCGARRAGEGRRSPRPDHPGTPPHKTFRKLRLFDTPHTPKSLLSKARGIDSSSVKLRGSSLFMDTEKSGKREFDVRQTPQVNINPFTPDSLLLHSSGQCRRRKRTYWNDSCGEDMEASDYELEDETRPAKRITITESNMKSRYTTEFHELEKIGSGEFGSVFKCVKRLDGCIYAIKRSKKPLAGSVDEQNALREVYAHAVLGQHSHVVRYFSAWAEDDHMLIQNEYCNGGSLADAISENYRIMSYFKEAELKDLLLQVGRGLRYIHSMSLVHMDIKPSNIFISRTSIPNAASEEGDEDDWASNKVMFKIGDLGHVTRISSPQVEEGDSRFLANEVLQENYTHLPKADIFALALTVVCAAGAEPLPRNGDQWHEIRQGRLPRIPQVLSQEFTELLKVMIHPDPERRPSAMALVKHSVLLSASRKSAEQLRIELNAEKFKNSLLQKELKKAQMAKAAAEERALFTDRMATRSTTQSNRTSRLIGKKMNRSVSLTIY
T1 sequence (Q96SW2 whole entry): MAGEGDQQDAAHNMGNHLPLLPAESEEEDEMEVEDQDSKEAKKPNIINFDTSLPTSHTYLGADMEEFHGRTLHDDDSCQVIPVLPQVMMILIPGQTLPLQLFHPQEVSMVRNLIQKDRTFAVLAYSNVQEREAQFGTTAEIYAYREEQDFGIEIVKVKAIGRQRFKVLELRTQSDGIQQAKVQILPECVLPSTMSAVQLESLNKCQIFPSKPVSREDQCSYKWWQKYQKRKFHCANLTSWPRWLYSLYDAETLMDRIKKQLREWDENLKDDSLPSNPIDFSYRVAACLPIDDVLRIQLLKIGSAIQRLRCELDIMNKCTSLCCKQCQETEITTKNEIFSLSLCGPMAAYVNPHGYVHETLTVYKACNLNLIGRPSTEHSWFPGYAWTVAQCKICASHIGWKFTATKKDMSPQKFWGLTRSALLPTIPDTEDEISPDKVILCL
T1 sequence (Q16531 whole entry partner): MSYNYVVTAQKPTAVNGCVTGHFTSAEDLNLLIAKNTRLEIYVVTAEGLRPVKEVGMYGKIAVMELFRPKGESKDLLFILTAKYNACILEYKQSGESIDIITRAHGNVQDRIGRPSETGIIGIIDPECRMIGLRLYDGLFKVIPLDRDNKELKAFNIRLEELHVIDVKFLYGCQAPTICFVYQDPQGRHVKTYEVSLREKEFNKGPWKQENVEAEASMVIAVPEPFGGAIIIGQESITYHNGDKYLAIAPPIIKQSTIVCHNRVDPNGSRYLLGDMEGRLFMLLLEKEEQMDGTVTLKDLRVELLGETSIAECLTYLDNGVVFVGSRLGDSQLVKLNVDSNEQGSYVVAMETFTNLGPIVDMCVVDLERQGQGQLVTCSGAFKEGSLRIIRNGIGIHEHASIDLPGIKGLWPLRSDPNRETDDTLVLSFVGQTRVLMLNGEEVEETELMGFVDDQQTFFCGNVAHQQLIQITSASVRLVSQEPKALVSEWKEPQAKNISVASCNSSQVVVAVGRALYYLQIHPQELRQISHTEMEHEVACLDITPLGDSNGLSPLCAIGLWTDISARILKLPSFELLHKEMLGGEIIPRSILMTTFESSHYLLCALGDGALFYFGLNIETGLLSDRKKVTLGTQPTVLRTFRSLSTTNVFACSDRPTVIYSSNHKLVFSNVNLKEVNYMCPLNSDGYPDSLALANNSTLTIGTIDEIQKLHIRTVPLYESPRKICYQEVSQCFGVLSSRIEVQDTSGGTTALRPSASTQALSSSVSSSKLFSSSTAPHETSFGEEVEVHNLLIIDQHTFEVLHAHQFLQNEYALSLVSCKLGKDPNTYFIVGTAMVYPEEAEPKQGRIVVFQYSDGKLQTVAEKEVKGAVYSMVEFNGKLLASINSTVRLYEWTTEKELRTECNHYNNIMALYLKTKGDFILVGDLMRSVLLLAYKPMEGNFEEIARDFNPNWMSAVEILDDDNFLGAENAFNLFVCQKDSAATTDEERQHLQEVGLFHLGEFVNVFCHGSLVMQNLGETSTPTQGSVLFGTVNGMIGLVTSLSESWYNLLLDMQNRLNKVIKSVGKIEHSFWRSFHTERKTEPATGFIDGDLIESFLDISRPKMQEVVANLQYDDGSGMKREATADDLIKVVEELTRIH

SMILES | DC50 (WEE1) [nM] | 293T-LentiX WEE1-ePL Degradation 4 hr YMin (%) (WEE1) | EC50 (MKN45 cells; Homo sapiens, MKN-45, 120 h) [nM] | EC50 (MDA-MB-231 cells; [1]) [nM] | EC50 (MKN45 cells) [nM] | EC50 (MDA-MB-231 cells) [nM] | MKN45 Cell Prolif. 120 hr YMin (%) (MKN45 cells) | MDA-MB 231 Cell Prolif. 120 hr YMin (%) (MDA-MB-231 cells)
COC[C@@H]1CN(Cc2cc(F)c3nc(C4CCCO4)ncc3c2)C[C@H]1Oc1ccc2c(c1)CN([C@H]1CCC(=O)NC1=O)C2=O (mixture of isomers) [Example 76, rel-(3S)-3-(5-{[(3S,4S)-1-{[8-fluoro-2-(oxolan-2-yl)quinazolin-6-yl]methyl}-4-(methoxymethyl)pyrrolidin-3-yl]oxy}-1-oxo-2,3-dihydro-1H-isoindol-2-yl)piperidine-2,6-dione] | 41 | 25.5 | 11 | 99 | – | – | 9.4 | 17.9
CC(C)(O)[C@@H]1CN(Cc2ccc3nc(C4CCOCC4)ccc3c2)C[C@H]1Oc1ccc2c(c1)CN([C@H]1CCC(=O)NC1=O)C2=O (racemic) [Example 137, rel-(3S)-3-(5-((4-(2-hydroxypropan-2-yl)-1-((2-(tetrahydro-2H-pyran-4-yl)quinolin-6-yl)methyl)pyrrolidin-3-yl)oxy)-1-oxoisoindolin-2-yl)piperidine-2,6-dione] | 12 | 40.9 | 233 | 61 | – | – | 70.6 | 77.3
COC(C)(C)[C@@H]1CN(Cc2ccc3nc(C4CCOCC4)ccc3c2)C[C@H]1Oc1ccc2c(c1)CN([C@H]1CCC(=O)NC1=O)C2=O (racemic) [Example 138, (3S)-3-(5-((4-(2-methoxypropan-2-yl)-1-((2-(tetrahydro-2H-pyran-4-yl)quinolin-6-yl)methyl)pyrrolidin-3-yl)oxy)-1-oxoisoindolin-2-yl)piperidine-2,6-dione] | 3 | 48.1 | 348 | ≥ 10300 | – | – | 80.2 | 94.6
CN1CC[C@]2(C[C@H](c3ccc4cc(CN5CC[C@H](Oc6ccc7c(c6)CN([C@H]6CCC(=O)NC6=O)C7=O)C5)ccc4n3)CO2)C1 (relative stereo) [Example 3, rel-(3S)-3-(5-(((3S)-1-((2-(7-methyl-1-oxa-7-azaspiro[4.4]nonan-3-yl)quinolin-6-yl)methyl)pyrrolidin-3-yl)oxy)-1-oxoisoindolin-2-yl)piperidine-2,6-dione] | 10 | 28.1 | 19 | 129 | – | – | 13.0 | 61.3
O=C1CCC(N2C(=O)c3ccc(O[C@H]4CCN(Cc5ccc6nc(N7CCOCC7)ncc6c5)C4)cc3C2=O)C(=O)N1 (single isomer, unassigned) [Example 12, 2-((S*)-2,6-dioxopiperidin-3-yl)-5-(((S)-1-((2-morpholino-quinazolin-6-yl)methyl)pyrrolidin-3-yl)oxy)isoindoline-1,3-dione] | – | – | 337 | 2720 | – | – | 40.6 | 79.6
O=C1CCC(N2C(=O)c3ccc(O[C@H]4CCN(Cc5ccc6nc(N7CCOCC7)ncc6c5)C4)cc3C2=O)C(=O)N1 (single isomer, unassigned) [Example 27, 2-((R*)-2,6-dioxopiperidin-3-yl)-5-(((S)-1-((2-morpholino-quinazolin-6-yl)methyl)pyrrolidin-3-yl)oxy)isoindoline-1,3-dione] | – | – | – | – | 205 | 2990 | 29.1 | 81.8

Further compounds by falling EC50 (MKN45 cells; Homo sapiens, MKN-45, 120 h), results first:

DC50 (WEE1) [nM] | 293T-LentiX WEE1-ePL Degradation 4 hr YMin (%) (WEE1) | EC50 (MKN45 cells; Homo sapiens, MKN-45, 120 h) [nM] | EC50 (MDA-MB-231 cells; [1]) [nM] | EC50 (MKN45 cells) [nM] | EC50 (MDA-MB-231 cells) [nM] | SMILES | MKN45 Cell Prolif. 120 hr YMin (%) (MKN45 cells) | MDA-MB 231 Cell Prolif. 120 hr YMin (%) (MDA-MB-231 cells)
2 | 33.5 | 6 | 82 | – | – | O=C1CC[C@H](N2Cc3cc(O[C@H]4CCN(Cc5ccc6nc([C@H]7CCO[C@]8(CCOC8)C7)ccc6c5)C4)ccc3C2=O)C(=O)N1 (relative stereo) [Example 23, rel-(3S)-3-(5-(((3S)-1-((2-(2,6-dioxaspiro[4.5]decan-9-yl)quinolin-6-yl)methyl)pyrrolidin-3-yl)oxy)-1-oxoisoindolin-2-yl)piperidine-2,6-dione] | 11.8 | 56.9
1 | 30.3 | 5 | 101 | – | – | O=C1CC[C@H](N2Cc3cc(O[C@H]4CCN(Cc5ccc6nc([C@@H]7CCO[C@@]8(CCOC8)C7)ccc6c5)C4)ccc3C2=O)C(=O)N1 (relative stereo) [Example 20, rel-(3S)-3-(5-(((3S)-1-((2-(2,6-dioxaspiro[4.5]decan-9-yl)quinolin-6-yl)methyl)pyrrolidin-3-yl)oxy)-1-oxoisoindolin-2-yl)piperidine-2,6-dione] | 11.6 | 60.2
1 | 29.8 | 2 | 129 | – | – | O=C1CC[C@H](N2Cc3cc(O[C@H]4CCN(Cc5ccc6nc([C@@H]7CCO[C@]8(CCOC8)C7)ccc6c5)C4)ccc3C2=O)C(=O)N1 (relative stereo) [Example 21, rel-(3S)-3-(5-(((3S)-1-((2-(2,6-dioxaspiro[4.5]decan-9-yl)quinolin-6-yl)methyl)pyrrolidin-3-yl)oxy)-1-oxoisoindolin-2-yl)piperidine-2,6-dione] | 9.9 | 41.9
1 | 31.3 | 2 | 39 | – | – | O=C1CC[C@H](N2Cc3cc(O[C@H]4CCN(Cc5ccc6nc([C@H]7CCO[C@@]8(CCOC8)C7)ccc6c5)C4)ccc3C2=O)C(=O)N1 (relative stereo) [Example 22, rel-(3S)-3-(5-(((3S)-1-((2-(2,6-dioxaspiro[4.5]decan-9-yl)quinolin-6-yl)methyl)pyrrolidin-3-yl)oxy)-1-oxoisoindolin-2-yl)piperidine-2,6-dione] | 10.8 | 42.5
